According to ChEMBL document CHEMBL1201862, “PubChem BioAssay data set” (2004):
Active and inactive are the calls of the source.

Tests used:
[1] = target: T1, Peroxisome proliferator-activated receptor gamma (Homo sapiens, UniProt P37231); assay: PPARg ligand-binding domain binders, dose response, PPARg partial agonist project, biochemical, TR-FRET, LanthaScreen (AID 504446)
[2] = target: Peroxisome proliferator-activated receptor alpha (Homo sapiens, UniProt Q07869); assay: Late stage assay provider counterscreen for partial agonists of the peroxisome proliferator-activated receptor gamma (PPARg): Luminescence-based cell-based dose response assay for partial agonists of the peroxisome proliferator-activated receptor alpha (PPARA). [Related pubchem assays (depositor defined):AID1051, AID1300, AID1319, AID1679, AID1808, AID504446, AID504447, AID504452, AID504453, AID631]; format: functional
Peroxisome proliferator-activated receptor alpha, sequence (Q07869 whole entry): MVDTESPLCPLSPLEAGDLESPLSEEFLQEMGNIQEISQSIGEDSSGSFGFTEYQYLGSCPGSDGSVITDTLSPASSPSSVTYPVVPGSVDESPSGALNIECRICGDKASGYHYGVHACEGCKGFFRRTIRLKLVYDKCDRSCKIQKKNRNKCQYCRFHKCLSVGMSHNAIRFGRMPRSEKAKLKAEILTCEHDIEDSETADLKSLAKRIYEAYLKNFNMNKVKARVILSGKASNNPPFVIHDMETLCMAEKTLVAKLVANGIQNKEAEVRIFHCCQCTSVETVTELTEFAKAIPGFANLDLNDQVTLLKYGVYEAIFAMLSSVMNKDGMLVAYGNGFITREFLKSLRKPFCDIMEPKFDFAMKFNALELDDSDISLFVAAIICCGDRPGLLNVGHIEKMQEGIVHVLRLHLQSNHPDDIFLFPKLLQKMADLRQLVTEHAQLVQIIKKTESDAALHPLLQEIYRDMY

[3] = target: T1, Peroxisome proliferator-activated receptor gamma; assay: PPARg partial agonists, dose response, cell-based, luminescence, assay provider (AID 504447); format: functional
[4] = target: Voltage-dependent T-type calcium channel subunit alpha-1H (Homo sapiens, UniProt O95180); assay: Cav3.2 T-type channel inhibitors, synthesized analogs, SAR follow-up, cell-based, synthetic library set 2, HEK293 HH8, Fluo-4 (AID 493023); format: functional
Voltage-dependent T-type calcium channel subunit alpha-1H, sequence (O95180 whole entry): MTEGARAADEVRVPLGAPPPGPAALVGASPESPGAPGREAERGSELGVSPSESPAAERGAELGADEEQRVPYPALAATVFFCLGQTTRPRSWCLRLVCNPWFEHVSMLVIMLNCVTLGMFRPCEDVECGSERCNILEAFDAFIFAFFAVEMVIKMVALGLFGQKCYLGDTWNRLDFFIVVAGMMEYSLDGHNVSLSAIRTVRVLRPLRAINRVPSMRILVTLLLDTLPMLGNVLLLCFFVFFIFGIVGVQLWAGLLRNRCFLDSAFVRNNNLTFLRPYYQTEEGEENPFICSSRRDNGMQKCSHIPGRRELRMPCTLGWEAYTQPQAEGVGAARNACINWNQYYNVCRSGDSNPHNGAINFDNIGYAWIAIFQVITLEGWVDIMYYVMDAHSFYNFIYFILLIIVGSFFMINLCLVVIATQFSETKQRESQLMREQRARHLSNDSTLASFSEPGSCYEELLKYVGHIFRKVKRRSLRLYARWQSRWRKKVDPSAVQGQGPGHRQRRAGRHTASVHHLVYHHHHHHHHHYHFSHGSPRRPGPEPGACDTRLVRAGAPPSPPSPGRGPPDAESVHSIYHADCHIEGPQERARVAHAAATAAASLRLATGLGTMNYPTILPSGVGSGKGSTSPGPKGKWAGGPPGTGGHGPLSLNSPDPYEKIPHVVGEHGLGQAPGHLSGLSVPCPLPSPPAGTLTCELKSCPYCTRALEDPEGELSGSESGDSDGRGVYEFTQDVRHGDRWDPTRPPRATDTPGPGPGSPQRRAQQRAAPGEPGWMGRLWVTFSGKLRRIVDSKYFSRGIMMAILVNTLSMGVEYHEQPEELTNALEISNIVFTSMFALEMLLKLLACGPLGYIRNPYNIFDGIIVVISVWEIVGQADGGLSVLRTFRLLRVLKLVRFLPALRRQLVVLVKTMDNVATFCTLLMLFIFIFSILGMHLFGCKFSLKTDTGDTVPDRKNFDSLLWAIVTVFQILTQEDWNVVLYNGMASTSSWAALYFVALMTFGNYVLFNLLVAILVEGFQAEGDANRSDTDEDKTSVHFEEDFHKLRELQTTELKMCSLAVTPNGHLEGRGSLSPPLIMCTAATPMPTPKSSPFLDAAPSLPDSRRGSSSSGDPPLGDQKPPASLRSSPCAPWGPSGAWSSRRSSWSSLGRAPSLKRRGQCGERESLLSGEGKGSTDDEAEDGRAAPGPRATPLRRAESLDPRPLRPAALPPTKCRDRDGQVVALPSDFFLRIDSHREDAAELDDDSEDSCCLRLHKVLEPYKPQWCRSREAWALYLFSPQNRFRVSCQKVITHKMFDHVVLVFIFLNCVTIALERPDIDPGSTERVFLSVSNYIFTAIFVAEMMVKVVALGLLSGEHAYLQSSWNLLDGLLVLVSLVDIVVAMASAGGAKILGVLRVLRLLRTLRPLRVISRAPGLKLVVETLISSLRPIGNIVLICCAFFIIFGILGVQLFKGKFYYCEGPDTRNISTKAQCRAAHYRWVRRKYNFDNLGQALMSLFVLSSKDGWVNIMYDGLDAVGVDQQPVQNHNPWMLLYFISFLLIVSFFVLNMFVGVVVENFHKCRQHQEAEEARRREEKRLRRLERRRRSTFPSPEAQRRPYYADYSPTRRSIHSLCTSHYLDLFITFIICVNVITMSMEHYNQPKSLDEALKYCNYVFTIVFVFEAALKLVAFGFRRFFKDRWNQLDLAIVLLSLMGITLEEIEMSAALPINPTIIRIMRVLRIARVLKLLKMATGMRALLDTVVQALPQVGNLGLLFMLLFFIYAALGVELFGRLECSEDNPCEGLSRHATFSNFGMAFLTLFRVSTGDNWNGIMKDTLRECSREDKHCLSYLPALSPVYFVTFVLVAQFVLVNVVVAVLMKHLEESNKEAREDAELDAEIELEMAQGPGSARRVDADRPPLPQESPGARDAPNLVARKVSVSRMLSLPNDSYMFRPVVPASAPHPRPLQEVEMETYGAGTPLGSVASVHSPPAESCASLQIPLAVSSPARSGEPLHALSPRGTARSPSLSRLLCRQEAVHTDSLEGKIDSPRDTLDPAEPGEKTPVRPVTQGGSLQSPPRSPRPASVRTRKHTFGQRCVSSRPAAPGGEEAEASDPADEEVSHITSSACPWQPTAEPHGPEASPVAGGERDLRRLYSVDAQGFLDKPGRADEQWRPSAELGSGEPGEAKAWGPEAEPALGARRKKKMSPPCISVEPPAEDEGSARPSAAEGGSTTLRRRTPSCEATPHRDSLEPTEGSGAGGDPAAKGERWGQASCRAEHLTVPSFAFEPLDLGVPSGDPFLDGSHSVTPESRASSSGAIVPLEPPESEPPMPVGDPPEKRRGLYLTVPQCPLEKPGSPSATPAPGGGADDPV

[5] = target: T2, Kappa-type opioid receptor (Homo sapiens, UniProt P41145); assay: SAR analysis of small molecule agonists of the kappa opioid receptor via a luminescent beta-arrestin assay - Set 2. [Related pubchem assays (depositor defined):AID1777, AID1785, AID1786, AID1966, AID2133, AID2136, AID2284, AID449737]; format: functional
T2 sequence (P41145 whole entry): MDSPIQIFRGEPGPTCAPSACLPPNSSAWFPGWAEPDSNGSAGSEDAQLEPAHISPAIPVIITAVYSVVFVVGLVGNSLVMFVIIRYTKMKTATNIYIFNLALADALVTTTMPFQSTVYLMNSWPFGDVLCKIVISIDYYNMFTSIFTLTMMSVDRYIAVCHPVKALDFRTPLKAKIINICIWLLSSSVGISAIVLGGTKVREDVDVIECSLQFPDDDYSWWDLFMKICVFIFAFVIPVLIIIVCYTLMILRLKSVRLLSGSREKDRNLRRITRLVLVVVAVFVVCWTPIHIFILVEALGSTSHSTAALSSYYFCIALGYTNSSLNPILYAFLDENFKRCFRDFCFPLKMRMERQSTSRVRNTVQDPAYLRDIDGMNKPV

[6] = target: Delta-type opioid receptor (Homo sapiens, UniProt P41143); assay: SAR Analysis of Antagonists of the DOR Receptor using an Image-Based Assay - Set 2. [Related pubchem assays (depositor defined):AID1777, AID1785, AID1786, AID1966, AID2133, AID2136, AID2284, AID2285, AID2357]; format: functional
Delta-type opioid receptor, sequence (P41143 whole entry): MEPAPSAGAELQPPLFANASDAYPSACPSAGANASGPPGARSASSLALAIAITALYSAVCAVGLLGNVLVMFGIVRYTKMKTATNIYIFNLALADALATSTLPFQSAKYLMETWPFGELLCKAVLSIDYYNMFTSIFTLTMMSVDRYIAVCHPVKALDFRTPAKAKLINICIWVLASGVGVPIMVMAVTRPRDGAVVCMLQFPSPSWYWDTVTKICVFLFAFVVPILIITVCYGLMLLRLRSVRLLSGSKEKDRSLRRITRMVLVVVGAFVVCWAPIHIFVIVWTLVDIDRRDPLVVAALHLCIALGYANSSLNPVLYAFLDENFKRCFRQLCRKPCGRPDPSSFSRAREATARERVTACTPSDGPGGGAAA

[7] = target: T2, Kappa-type opioid receptor; assay: SAR analysis of Antagonists of the Kappa Opioid Receptor (KOR) using an Image-Based Assay - Set 2. [Related pubchem assays (depositor defined):AID1777, AID1785, AID1786, AID1966, AID2133, AID2136, AID2284, AID2285, AID2348]; format: functional
[8] = target: T3, Dual specificity protein phosphatase 3 (Homo sapiens, UniProt P51452); assay: SAR VHR1 Fluorescent Assay for In Vitro dose response studies Set 2. [Related pubchem assays (depositor defined):AID1654, AID1661, AID1878]; format: functional
T3 sequence (P51452 whole entry): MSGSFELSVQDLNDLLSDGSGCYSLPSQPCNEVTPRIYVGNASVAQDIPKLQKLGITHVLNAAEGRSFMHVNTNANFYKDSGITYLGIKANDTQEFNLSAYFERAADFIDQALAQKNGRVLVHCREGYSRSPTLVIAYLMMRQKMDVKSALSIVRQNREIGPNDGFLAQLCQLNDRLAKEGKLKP

[9] = target: T3, Dual specificity protein phosphatase 3; assay: SAR VHR1 Fluorescent Assay for In Vitro dose response studies. [Related pubchem assays (depositor defined):AID1654, AID1661, AID1878, AID1992, AID2004, AID2070, AID2085]; format: functional
[10] = target: T3, Dual specificity protein phosphatase 3; assay: SAR VHR1 absorbance Assay for In Vitro dose response studies. [Related pubchem assays (depositor defined):AID1654, AID1661, AID1878, AID1992, AID2004]
[11] = target: T4, Dual specificity protein phosphatase 6 (Rattus norvegicus, UniProt Q64346); format: functional;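 further: confirmatory in vitro dose-response testing of MKP-3 inhibition; recombinant His-tagged MKP-3 made in E. coli BL21 with OMFP substrate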
T4 sequence (Q64346 whole entry): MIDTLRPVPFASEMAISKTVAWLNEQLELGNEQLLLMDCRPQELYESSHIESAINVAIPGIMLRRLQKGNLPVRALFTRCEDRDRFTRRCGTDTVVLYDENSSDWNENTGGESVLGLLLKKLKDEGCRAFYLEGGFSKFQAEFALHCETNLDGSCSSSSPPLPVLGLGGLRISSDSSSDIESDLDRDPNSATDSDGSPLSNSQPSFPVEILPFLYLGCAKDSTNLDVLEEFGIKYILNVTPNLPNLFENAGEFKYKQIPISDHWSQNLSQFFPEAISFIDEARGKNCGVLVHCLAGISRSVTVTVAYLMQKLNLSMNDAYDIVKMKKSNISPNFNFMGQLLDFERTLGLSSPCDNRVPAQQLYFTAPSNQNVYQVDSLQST

[12] = target: T5, Tyrosine-protein phosphatase non-receptor type 7 (Homo sapiens, UniProt P35236); assay: redox-dependent HePTP inhibition, mechanism study, biochemical, fluorescence (AID 2068); format: functional
T5 sequence (P35236 whole entry): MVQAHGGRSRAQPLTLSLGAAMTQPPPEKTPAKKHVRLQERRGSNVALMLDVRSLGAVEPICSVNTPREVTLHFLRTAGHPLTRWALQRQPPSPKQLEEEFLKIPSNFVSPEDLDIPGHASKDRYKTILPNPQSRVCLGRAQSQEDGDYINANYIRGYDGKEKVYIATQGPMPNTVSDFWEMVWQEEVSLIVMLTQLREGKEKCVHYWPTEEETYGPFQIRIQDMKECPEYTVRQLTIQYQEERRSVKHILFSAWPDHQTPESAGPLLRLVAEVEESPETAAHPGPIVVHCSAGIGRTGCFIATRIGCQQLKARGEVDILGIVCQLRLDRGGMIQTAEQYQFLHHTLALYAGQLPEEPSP

T1 sequence (P37231 whole entry, the tested form may be a part): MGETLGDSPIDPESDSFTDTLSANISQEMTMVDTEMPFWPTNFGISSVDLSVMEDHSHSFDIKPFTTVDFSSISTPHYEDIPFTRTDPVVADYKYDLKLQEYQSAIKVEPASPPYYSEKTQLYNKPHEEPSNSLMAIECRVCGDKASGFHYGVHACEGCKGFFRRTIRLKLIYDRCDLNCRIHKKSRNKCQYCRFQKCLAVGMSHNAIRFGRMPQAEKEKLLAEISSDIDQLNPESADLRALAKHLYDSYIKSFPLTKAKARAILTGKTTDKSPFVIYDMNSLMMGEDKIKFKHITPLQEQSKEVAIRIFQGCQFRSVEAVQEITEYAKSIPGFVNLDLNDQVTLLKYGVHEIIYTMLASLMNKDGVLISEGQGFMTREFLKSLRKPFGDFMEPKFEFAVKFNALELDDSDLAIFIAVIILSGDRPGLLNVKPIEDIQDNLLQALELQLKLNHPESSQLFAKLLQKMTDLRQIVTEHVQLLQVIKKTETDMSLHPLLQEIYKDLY

SMILES: O=C(O)CCN1C(=O)/C(=C/c2cccc(OCc3ccc(F)cc3)c2)SC1=S
- IC50 [1]: 1.9 µM (active)
- EC50 [2]: 0.243 µM (active)
- EC50 [3]: 3 µM (active)

SMILES: CC(C)(C)CCN1CCC[C@@H](NC(=O)COc2ccc(F)cc2Cl)C1
- EC50 [4]: 10 µM (active)

SMILES: CC[C@](C)(C(=O)NC1CCCCC1)N(Cc1ccco1)C(=O)c1ccccn1
- EC50 [5]: 0.151 µM (active)
- IC50 [6]: > 32 µM (inactive)
- IC50 [7]: > 32 µM (inactive)

SMILES: NS(=O)(=O)c1cc(C(=O)NC2CCCc3ccccc32)ccc1Cl (configuration not stated)
- IC50 [8]: > 100 µM (inactive)
- IC50 [9]: > 100 µM (inactive)
- IC50 [10]: > 100 µM (inactive)
- IC50 [11]: > 100 µM (inactive)
- IC50 [12]: > 100 µM (inactive)
